{
  "source": "patent US5262519A",
  "about": "“GRF analogs XI” (The Salk Institute for Biological Studies, priority 1991, dated 1993)",
  "note": "Square brackets hold non-standard residues; d marks the D form. Ends that are not written are not given here. Peptide text beside a SMILES is read from it. Nle = CCCC[C@H](N)C(=O)O",
  "data": [
    {"test_system": "cells of rat pituitary glands", "experiment": "in vitro release of growth hormone from cultured rat pituitary cells, GH measured by radioimmunoassay", "type": "cell-based", "conditions": "potency for GH release relative to standard hGRF(1-40)-OH = 1.0; equimolar concentrations; 3 to 4 hours incubation; range in parentheses", "protocol": "To determine the relative effectiveness of synthetic peptides to promote the release of growth hormone, in vitro assays are carried out using synthetic hpGRF(1-40)-OH as a standard in side-by-side comparison with equimolar concentrations of the representative analogs which have been synthesized. Cultures are used which include cells of rat pituitary glands removed some three to five days previously. Such cultures are considered optimal for the secretion of growth hormone and are used for the comparative testing, in the general manner described in Vale et al. Endocrinology, 91, 562-572 (1972) and as more particularly described in Vale et al. Endocrinology, 112, 1553-1555 (1983). Incubation with the substance to be tested is carried out for 3 to 4 hours, and aliquots of the culture medium are removed and processed to measure their contents in immunoreactive GH(ir GH) by a well-characterized radioimmunoassay.", "values": [
      {"compound": "[Ala^16, Nle^27 ]-hGRF(1-29)-NH2 (YADAIFTNSYRKVLGALSARKLLQDI[Nle]SR-NH2; N-terminus assumed; SMILES CCCC[C@H](NC(=O)[C@@H](NC(=O)[C@H](CC(=O)O)NC(=O)[C@H](CCC(N)=O)NC(=O)[C@H](CC(C)C)NC(=O)[C@H](CC(C)C)NC(=O)[C@H](CCCCN)NC(=O)[C@H](CCCNC(=N)N)NC(=O)[C@H](C)NC(=O)[C@H](CO)NC(=O)[C@H](CC(C)C)NC(=O)[C@H](C)NC(=O)CNC(=O)[C@H](CC(C)C)NC(=O)[C@@H](NC(=O)[C@H](CCCCN)NC(=O)[C@H](CCCNC(=N)N)NC(=O)[C@H](Cc1ccc(O)cc1)NC(=O)[C@H](CO)NC(=O)[C@H](CC(N)=O)NC(=O)[C@@H](NC(=O)[C@H](Cc1ccccc1)NC(=O)[C@@H](NC(=O)[C@H](C)NC(=O)[C@H](CC(=O)O)NC(=O)[C@H](C)NC(=O)[C@@H](N)Cc1ccc(O)cc1)[C@@H](C)CC)[C@@H](C)O)C(C)C)[C@@H](C)CC)C(=O)N[C@@H](CO)C(=O)N[C@@H](CCCNC(=N)N)C(N)=O) [Example No. 2]", "In Vitro Potencies": "1.502(0.727-2.859)"},
      {"compound": "CCCC[C@H](NC(=O)[C@@H](NC(=O)[C@H](CC(=O)O)NC(=O)[C@H](C)NC(=O)[C@H](CC(C)C)NC(=O)[C@H](CC(C)C)NC(=O)[C@H](CCCCN)NC(=O)[C@H](CCCNC(=N)N)NC(=O)[C@H](C)NC(=O)[C@H](CO)NC(=O)[C@H](CC(C)C)NC(=O)[C@H](CCC(N)=O)NC(=O)CNC(=O)[C@H](CC(C)C)NC(=O)[C@@H](NC(=O)[C@H](CCCCN)NC(=O)[C@H](CCCNC(=N)N)NC(=O)[C@H](Cc1ccc(O)cc1)NC(=O)[C@H](CO)NC(=O)[C@H](CC(N)=O)NC(=O)[C@@H](NC(=O)[C@H](Cc1ccccc1)NC(=O)[C@@H](NC(=O)[C@H](C)NC(=O)[C@H](CC(=O)O)NC(=O)[C@H](C)NC(=O)[C@@H](N)Cc1ccc(O)cc1)[C@@H](C)CC)[C@@H](C)O)C(C)C)[C@@H](C)CC)C(=O)N[C@@H](CO)C(=O)N[C@@H](CCCNC(=N)N)C(N)=O", "note": "[Example No. 3, [Ala^24, Nle^27]-hGRF(1-29)-NH2] (H-YADAIFTNSYRKVLGQLSARKLLADI[Nle]SR-NH2)", "In Vitro Potencies": "1.345(0.595-2.068)"},
      {"compound": "CCCC[C@H](NC(=O)[C@@H](NC(=O)[C@H](C)NC(=O)[C@H](CCC(N)=O)NC(=O)[C@H](CC(C)C)NC(=O)[C@H](CC(C)C)NC(=O)[C@H](CCCCN)NC(=O)[C@H](CCCNC(=N)N)NC(=O)[C@H](C)NC(=O)[C@H](CO)NC(=O)[C@H](CC(C)C)NC(=O)[C@H](CCC(N)=O)NC(=O)CNC(=O)[C@H](CC(C)C)NC(=O)[C@@H](NC(=O)[C@H](CCCCN)NC(=O)[C@H](CCCNC(=N)N)NC(=O)[C@H](Cc1ccc(O)cc1)NC(=O)[C@H](CO)NC(=O)[C@H](CC(N)=O)NC(=O)[C@@H](NC(=O)[C@H](Cc1ccccc1)NC(=O)[C@@H](NC(=O)[C@H](C)NC(=O)[C@H](CC(=O)O)NC(=O)[C@H](C)NC(=O)[C@@H](N)Cc1ccc(O)cc1)[C@@H](C)CC)[C@@H](C)O)C(C)C)[C@@H](C)CC)C(=O)N[C@@H](CO)C(=O)N[C@@H](CCCNC(=N)N)C(N)=O", "note": "[Example No. 4, [Ala^25, Nle^27]-hGRF(1-29)-NH2] (H-YADAIFTNSYRKVLGQLSARKLLQAI[Nle]SR-NH2)", "In Vitro Potencies": "1.34(0.837-2.190)"},
      {"compound": "CCCC[C@H](NC(=O)[C@@H](NC(=O)[C@H](CC(=O)O)NC(=O)[C@H](CCC(N)=O)NC(=O)[C@H](CC(C)C)NC(=O)[C@H](CC(C)C)NC(=O)[C@H](CCCCN)NC(=O)[C@H](CCCNC(=N)N)NC(=O)[C@H](C)NC(=O)[C@H](CO)NC(=O)[C@H](CC(C)C)NC(=O)[C@H](CCC(N)=O)NC(=O)CNC(=O)[C@H](CC(C)C)NC(=O)[C@@H](NC(=O)[C@H](CCCCN)NC(=O)[C@H](CCCNC(=N)N)NC(=O)[C@H](Cc1ccc(O)cc1)NC(=O)[C@H](CO)NC(=O)[C@H](C)NC(=O)[C@@H](NC(=O)[C@H](Cc1ccccc1)NC(=O)[C@@H](NC(=O)[C@H](C)NC(=O)[C@H](CC(=O)O)NC(=O)[C@H](C)NC(=O)[C@@H](N)Cc1ccc(O)cc1)[C@@H](C)CC)[C@@H](C)O)C(C)C)[C@@H](C)CC)C(=O)N[C@@H](CO)C(=O)N[C@@H](CCCNC(=N)N)C(N)=O", "note": "[Example No. 1, [Ala^8, Nle^27]-hGRF(1-29)-NH2] (H-YADAIFTASYRKVLGQLSARKLLQDI[Nle]SR-NH2)", "In Vitro Potencies": "2.143(1.178-4.065)"},
      {"compound": "CC[C@H](C)[C@H](NC(=O)[C@H](C)NC(=O)[C@H](CC(=O)O)NC(=O)[C@H](C)NC(=O)[C@@H](N)Cc1ccc(O)cc1)C(=O)N[C@@H](Cc1ccccc1)C(=O)N[C@H](C(=O)N[C@@H](CC(N)=O)C(=O)N[C@@H](CO)C(=O)N[C@@H](Cc1ccc(O)cc1)C(=O)N[C@@H](CCCNC(=N)N)C(=O)N[C@@H](CCCCN)C(=O)N[C@H](C(=O)N[C@@H](CC(C)C)C(=O)NCC(=O)N[C@@H](CCC(N)=O)C(=O)N[C@@H](CC(C)C)C(=O)N[C@@H](CO)C(=O)N[C@@H](C)C(=O)N[C@@H](CCCNC(=N)N)C(=O)N[C@@H](CCCCN)C(=O)N[C@@H](CC(C)C)C(=O)N[C@@H](CC(C)C)C(=O)N[C@@H](CCC(N)=O)C(=O)N[C@@H](CC(=O)O)C(=O)N[C@H](C(=O)N[C@@H](CCSC)C(=O)N[C@@H](CO)C(=O)N[C@@H](CCCNC(=N)N)C(=O)N[C@@H](CCC(N)=O)C(=O)N[C@@H](CCC(N)=O)C(=O)NCC(=O)N[C@@H](CCC(=O)O)C(=O)N[C@@H](CO)C(=O)N[C@@H](CC(N)=O)C(=O)N[C@@H](CCC(N)=O)C(=O)N[C@@H](CCC(=O)O)C(=O)N[C@@H](CCCNC(=N)N)C(=O)NCC(=O)N[C@@H](C)C(=O)O)[C@@H](C)CC)C(C)C)[C@@H](C)O", "note": "[hGRF(1-40)-OH, reference compound]", "In Vitro Potencies": 1.0}
    ]}
  ]
}
